Source: patent US8552060B2, “Methods for treatment of sexual dysfunction” (SK Biopharmaceuticals Co., Ltd., priority 2005, dated 2013)

Columns and labels:
[1] = tested on: ovariectomized estrogen treated rat; assay: Lordotic response in the ovariectomized estrogen treated rat (female sexual behavior); assay type: in vivo
Procedure: For initial preclinical evaluation of the effects on sexual behavior, the following study was conducted to evaluate the effects of test compound on lordotic response in the ovariectomized estrogen treated rat.
Animals: Long-Evans hooded female rates (100-125 g) male Sprague-Dawley rats (150-175 g) were obtained from Charles River Breeding laboratories.
Chemicals: Progesterone (Cat. # P-0130; Lot 128H0456) and estrone (Cat # E-9750; Lot 28H0372) were purchased from Sigma Chemical Company and quinelorane Cat # Q-110; Lot PRF-694A) and bupropion (Cat # B-102; BS-11-10) were purchased from Research Biochemicals Incorporated. Test compound (Lot # D5-91B) was synthesized at SK Biopharmaceutical Center, Fairfield, N.J. Estrone and progesterone were dissolved in propylene glycol (Fisher Scientific P355-1; Lot # 992032). test compound, quinelorane and bupropion were dissolved in sterile saline (0.9% NaCl, Abbott Laboratories Lot #25-270-DK).
Protocol for ovariectomy: Female rats (108-120 g) were anesthetized with 100 mg/kg s.c. ketamine (Ketaset 100 mg/ml, Ford Dodge Laboratories, lot #440339) and 7 mg/kg s.c. xylazine (Rompun 20 mg/ml, Bayer Corporation, lot #26050E). A midline incision (1 cm) on the ventral surface was made starting approximately 0.5-1 cm from the genitalia. A second incision (1 cm) was through the linea alba connecting fascia for abdominal muscles. The body of the uterus was located near the pubic bone and retracted through the abdominal incision. The uterine horns with ovaries were retracted through the abdominal wall. Each uterine horn was ligated near the uterine body bisected and removed. The abdominal, wall was closed with 2 sutures and the skin incision was closed with either wound clips or sutures. The rats were kept warm until they recovered from the anesthesia. OVX=ovariectomized.
Accelerated light cycle (10:14): Lights were on from 1 am to 11 am. During dark phase, the room was kept dark except for lighting from red lights needed to observe the behaviors.
Behavior observation arenas: Side walls (45×60 cm) and top (60×60 cm) with hole (15×15 cm) were constructed of clear Lucite plastic and bonded together with adhesive. The base was made from stainless steel grating and was placed over bedding material. Arenas and base were washed between experiments.
Protocol for female sexual behavior: At least 2-3 hours into the dark phase of the lighting cycle, male rats are placed into the behavior arenas and allowed to acclimate for 15 minutes prior to testing. Prior to the testing of experimental animals, the males are exposed to sexually receptive, OVX rats treated with estrone 0.25 mg s.c. 48 hours prior to test and progesterone 1 mg s.c. 6 hours prior to test. When active mating occurs, the receptive females are removed. The test female (OVX treated only with estrone 0.25 mg 48 hours prior to test) is added to the arena with the activated male. The number of lordosis responses for 15 mounts is recorded (lordosis is defined as a downward arching of the back to expose genitalia).
During this first test period, only female rats with a L/M of 4/15 or lower were treated with test drug and 90 minutes later the rats were retested as previously for 15 mounts. This exclusion criterion is used to lower the variance due to rats that become overly receptive to estrone. The index of change is the change in L/M between test 2 and test 1. Statistical comparisons of the treatment groups were made using ANOVA followed by a Dunnett's test for multiple treatment group designs and a Student's t test for single control and treatment designs with the minimum level of significance set at p<0.05.

patients = conditions: Foreman 1995; cited from earlier work
humans = assay: Placebo controlled antidepressant trial in humans, analysis of post trial questionnaires; assay type: in vivo, human; conditions: mostly in males
Source text: This was a large placebo controlled study where the test compound was compared with a conventional SSRI antidepressant (Paroxetine). […] This study was not designed to see or evaluate this property of the compound and so future studies directed specifically to assess this property of test compound in humans will be performed.

rats and mice = assay: Locomotor activity in rats and mice; assay type: in vivo; conditions: at higher dose
Source text: Although the mechanism of action of test compound is unknown, this pharmacological profile may involve activation of central catecholaminergic pathways.

Structure (SMILES) | Lordotic response compared to vehicle treatment ([1]; 30 mg/kg s.c.) | Change in Lordotic Response ([1]; 30 mg/kg s.c., change in L/M, * significantly different from vehicle (Student's test)) | Effect on sexual response in patients (patients) | Lordotic response compared to vehicle treatment ([1]; 25 μg/kg s.c.) | Change in Lordotic Response ([1]; 25 μg/kg s.c., change in L/M, * significantly different from vehicle (Student's test)) | Change in Lordotic Response ([1]; 10 mg/kg s.c., change in L/M between test 2 and test 1, retest 90 minutes after drug, OVX estrone treated female rats) | Change in Lordotic Response ([1]; 30 mg/kg s.c., change in L/M between test 2 and test 1, retest 90 minutes after drug, * significantly different from vehicle (ANOVA, Dunnett's test)) | Change in Lordotic Response ([1]; 100 mg/kg s.c., change in L/M between test 2 and test 1, retest 90 minutes after drug, * significantly different from vehicle (ANOVA, Dunnett's test)) | Lordotic response compared to vehicle treatment ([1]; 30 and 100 mg/kg s.c.) | Lordotic behavior in the female rat, dose relation ([1]; doses of 10, 30 and 100 mg/kg s.c.) | Dose of peak effect on interest in sex and ability to have an orgasm (humans) | Effect on interest in sex and ability to have an orgasm (post trial questionnaires) (humans; placebo controlled study with Paroxetine comparator) | Effects on locomotor activity (rats and mice)
CC(NC(C)(C)C)C(=O)c1cccc(Cl)c1 (centres unmarked) [Bupropion, bupropion, reference compound] | significant increases in lordotic response | 0.478 +/− 0.073 * | augment sexual response in patients |  |  |  |  |  |  |  |  |  | 
CCCN1CCC[C@@H]2Cc3nc(N)ncc3C[C@H]21 [Quinelorane, quinelorane, reference compound] |  |  | augment sexual response in patients | significant increases in lordotic response | 0.593 +/− 0.056 * |  |  |  |  |  |  |  | 
NC(=O)OC[C@H](N)Cc1ccccc1 [test compound, O-carbamoyl-(D)-phenylalaninol] |  |  |  |  |  | 0.338 +/− 0.049 | 0.476 +/− 0.049 * | 0.559 +/− 0.059 * | significantly greater lordotic response than vehicle treatment | dose-related increases in lordotic behavior | 400 mg per day | increasing interest in sex and in ability to have an orgasm | stimulant-like effects on locomotor activity
